Like-named read-outs stand apart in the source and are kept apart here.
Legend:
Ts65Dn and control mice [1] = experiment: Motor coordination: rotarod; format: in vivo; details: mice of either genotype, 20 mg/kg p.o. chronic
Procedure: (§1) For mice studies, active pharmaceutical compounds of present invention were formulated in chocolate-milk (Puleva, Barcelona, Spain). Active pharmaceutical compounds of present invention or vehicle were administered p.o. at a dose of 20 mg/kg for six weeks. Their administration was prolonged during the 30 days of the behavioral assessment.
Motor coordination was evaluated using a rotarod device (Ugo Basile; Comerio, Italy), which consists of a 37-cm-long, 3-cm diameter plastic rod that rotates at different speeds. In a single session, 4 trials with a maximum duration of 60 s each were performed. In the first three tests, the rod was rotated at constant speeds of 5, 25 and 50 rpm, respectively. The last trial consisted of an acceleration cycle, in which the rod rotated progressively faster, and the animal had to adapt to the growing demands of the test. The length of time that each animal stayed on the rotarod was recorded.

Ts65Dn and control mice [2] = experiment: Spontaneous activity: actimetry; format: in vivo; details: 20 mg/kg p.o. chronic, vs vehicle
Procedure: as §1
In this test the circadian variation of the animals' spontaneous locomotor activity during a complete light-dark cycle of 24 hours was evaluated. The apparatus is a device (Acti-system II, Panlab, Barcelona) that detects the changes produced in a magnetic field by the movement of the mice. It registers the movements of animals during a continuous 24 hour cycle (12 hours of light and 12 hours of darkness).

Ts65Dn and control mice [3] = experiment: Open field; format: in vivo; details: mice of either genotype; for horizontal or vertical activity in open field: 20 mg/kg p.o. chronic; for anxiogenic effect (activity in the center of the open field): chronic administration
Procedure: as §1
Exploratory behavior and anxiety were assessed using a square-shaped open field (55 cm×55 cm, surrounded by a 25-cm-tall fence), divided into 25 equal squares. The animals were placed in the center of the field, and the number of vertical (rearing) activities and horizontal crossings (from square to square, subdivided into center vs. peripheral crossings) were scored in a single 5-min trial.

[4] = tested on: hippocampal slices of Ts65Dn mice; experiment: Long term potentiation in hippocampal slices after chronic treatment; format: in vivo; details: 20 mg/kg p.o. for six weeks, vs control mice
Procedure: The effect of chronic administration of 8581 and R1 on LTP was evaluated in the Ts65Dn mouse model of Down syndrome. 8581, R1 (20 mg/kg p.o.) or vehicle was administered for six weeks. Mice were decapitated 1 hour after the last administration and the brains were rapidly removed. The hippocampi were dissected and 400-μm slices were cut with a tissue chopper. […] Field excitatory postsynaptic potentials (fEPSPs) were recorded from the CA1 stratum radiatum with a glass micropipette (1-4 MΩ) containing 2 M NaCl and evoked by stimulation of the Schaffer collaterals with insulated bipolar platin/iridium electrodes >500 μm away from the recording electrode. The stimulus strength was adjusted to evoke fEPSPs equal to 50% of the relative maximum amplitude without superimposed population spike. After stable baseline recordings (100 μs pulse-duration, 0.033 Hz), long term potentiation (LTP) was induced by TBS (10 trains of 5 pulses at 100 Hz and intervals of 200 ms). The duration of the stimulation pulses was doubled during the tetanus. After 20 min of baseline recording, LTP was induced and recorded for 80 min in each individual hippocampal slice. […] For the analysis, fEPSP slopes were expressed as a percentage of the baseline values recorded. Results from several slices were expressed as mean±SEM. […]

human GABA A α5β3γ2 [5] = target: T1, human GABA A α5β3γ2 (Homo sapiens, UniProt P18507+P31644); experiment: [3H]flumazenil competition binding, HEK293 cells expressing human α5β3γ2; parameters: expressed in transfected cells; host or cells: HEK293
human GABA A α1β2/3γ2 [6] = target: T2, human GABA A α1β2/3γ2 (Homo sapiens, UniProt P14867+P18507); experiment: [3H]flumazenil competition binding, HEK293 cells expressing human α1β2/3γ2; parameters: expressed in transfected cells; host or cells: HEK293; details: for Ki: [3H]flumazenil competition, human α1β2/3γ2, read-out: hKi α1; for hKi α1/hKi α5: binding selectivity ratio
human GABA A α2β3γ2 [7] = target: T3, human GABA A α2β3γ2 (Homo sapiens, UniProt P18507+P47869); experiment: [3H]flumazenil competition binding, HEK293 cells expressing human α2β3γ2; parameters: expressed in transfected cells; host or cells: HEK293; details: for hKi α2/hKi α5: binding selectivity ratio
human GABA A α3β3γ2 = human GABA A α3β3γ2 (Homo sapiens, UniProt P18507+P34903); experiment: [3H]flumazenil competition binding, HEK293 cells expressing human α3β3γ2; parameters: expressed in transfected cells; host or cells: HEK293; details: for hKi α3/hKi α5: binding selectivity ratio
human GABA A α5β3γ2 [8] = target: T1, human GABA A α5β3γ2; experiment: Two-microelectrode voltage clamp, modulation of GABA EC10 response in Xenopus oocytes, α5β3γ2; format: cell-based; parameters: expressed in transfected cells; host or cells: Xenopus laevis oocytes; details: % change of submaximal (EC10) response to GABA at 30×Ki
Procedure: (§2) Table 2b. […] Effect at human GABA A α5 receptors: % change of a submaximal (EC10) response to GABA determined at 30×Ki value from the flumazenil binding assay.
(§3) Subtype-selective effects were determined on cloned receptors expressed in Xenopus oocytes. Human recombinant GABA A receptors were expressed in Xenopus laevis oocytes. Current responses were evoked in two-microelectrode voltage-clamp condition by applying an EC10 of GABA before and during the co-application of the test compound. Response amplitudes in the presence of the test compound are expressed as percentage of the amplitudes before drug addition.

human GABA A α1β2/3γ2 [9] = target: T2, human GABA A α1β2/3γ2; experiment: Two-microelectrode voltage clamp, modulation of GABA EC10 response in Xenopus oocytes, α1β2/3γ2; format: cell-based; parameters: expressed in transfected cells; host or cells: Xenopus laevis oocytes; details: % change of EC10 GABA response at 3 μM or at 30×Ki if Ki below 0.1 μM
human GABA A α2β3γ2 [10] = target: T3, human GABA A α2β3γ2; experiment: Two-microelectrode voltage clamp, modulation of GABA EC10 response in Xenopus oocytes, α2β3γ2; format: cell-based; parameters: expressed in transfected cells; host or cells: Xenopus laevis oocytes; details: % change of EC10 GABA response at 3 μM or at 30×Ki if Ki below 0.1 μM
Procedure: as §2, §3

Q: How did the “motor coordination in the rotarod” value (Ts65Dn and control mice [1]) turn out when `FC(F)c1ncn2c1Cn1ncnc1-c1cc(Br)ccc1-2` [Compound 8581, 3-Bromo-10-difluoromethyl-9H-imidazo[1,5-a][1,2,4]triazolo[1,5-d][1,4]benzodiazepine] was run?
A: not modified

Q: And the “spontaneous activity in home cage, dark or light phase” value (Ts65Dn and control mice [2])?
A: did not differ in the amount of spontaneous activity

Q: What about the “horizontal or vertical activity in open field” value (Ts65Dn and control mice [3]) of the same compound?
A: did not significantly affect

Q: What about the “anxiogenic effect (activity in the center of the open field)” value (Ts65Dn and control mice [3]) of the same compound?
A: did not produce an anxiogenic effect

Q: And the “LTP induced in hippocampal slices of treated Ts65Dn animals” value [4]?
A: not different from that induced in hippocampal slices of control mice

Q: And the Ki (human GABA A α5β3γ2 [5])?
A: 4.6 nM

Q: What about the Ki (human GABA A α1β2/3γ2 [6]) of the same compound?
A: 174 nM

Q: What about the “hKi α1/hKi α5” value (human GABA A α1β2/3γ2 [6]) of the same compound?
A: 38

Q: And the Ki (human GABA A α2β3γ2 [7]; [3H]flumazenil competition, human α2β3γ2, read-out: hKi α2)?
A: 185 nM

Q: And the “hKi α2/hKi α5” value (human GABA A α2β3γ2 [7])?
A: 40

Q: What about the Ki (human GABA A α3β3γ2) of the same compound?
A: 79.6 nM

Q: What about the “hKi α3/hKi α5” value (human GABA A α3β3γ2) of the same compound?
A: 17

Q: What about the “Efficacy GABA A α5β3γ2” value (human GABA A α5β3γ2 [8]) of the same compound?
A: −46%

Q: And the “Efficacy GABA A α1β2/3γ2” value (human GABA A α1β2/3γ2 [9])?
A: −1%

Q: What about the “Efficacy GABA A α2β3γ2” value (human GABA A α2β3γ2 [10]) of the same compound?
A: −11%

Q: Which “motor coordination in the rotarod” value (Ts65Dn and control mice [1]) does the source give for `Cc1onc(-c2ccc(F)cc2)c1COc1ccc(C(=O)N2CCS(=O)(=O)CC2)cn1` [Compound R1, (1,1-Dioxo-1,6-thiomorpholin-4-yl)-{6-[3-(4-fluoro-phenyl)-5-methyl-isoxazol-4-ylmethoxy]-pyridin-3-yl}-methanone] here?
A: not modified

Q: What about the “spontaneous activity in home cage, dark or light phase” value (Ts65Dn and control mice [2]) of the same compound?
A: did not differ in the amount of spontaneous activity

Q: What about the “horizontal or vertical activity in open field” value (Ts65Dn and control mice [3]) of the same compound?
A: did not significantly affect

Q: And the “anxiogenic effect (activity in the center of the open field)” value (Ts65Dn and control mice [3])?
A: did not produce an anxiogenic effect

Q: What about the “LTP induced in hippocampal slices of treated Ts65Dn animals” value [4] of the same compound?
A: not different from that induced in hippocampal slices of control mice

Q: And the Ki (human GABA A α5β3γ2 [5]; [3H]flumazenil competition, human α5β3γ2, read-out: hKi α5)?
A: 4.7 nM

Q: What about the Ki (human GABA A α1β2/3γ2 [6]) of the same compound?
A: 985 nM

Q: And the “hKi α1/hKi α5” value (human GABA A α1β2/3γ2 [6])?
A: 209

Q: What about the Ki (human GABA A α2β3γ2 [7]) of the same compound?
A: 502 nM

Q: And the “hKi α2/hKi α5” value (human GABA A α2β3γ2 [7])?
A: 107

Q: What about the Ki (human GABA A α3β3γ2) of the same compound?
A: 489 nM

Q: What about the “hKi α3/hKi α5” value (human GABA A α3β3γ2) of the same compound?
A: 104

Q: What about the “Efficacy GABA A α5β3γ2” value (human GABA A α5β3γ2 [8]) of the same compound?
A: −39%

Q: What about the “Efficacy GABA A α1β2/3γ2” value (human GABA A α1β2/3γ2 [9]) of the same compound?
A: −4%

Q: What about the “Efficacy GABA A α2β3γ2” value (human GABA A α2β3γ2 [10]) of the same compound?
A: −6%
